Molecular target: T1, human Nav1.2 isoform (hNav1.2) (Homo sapiens, UniProt Q99250)
T1 construct: gene SCN2A
Assay: automated patch clamp, CHO cells transfected with hNav1.[…]
Type: cell-based

T1 sequence (Q99250 whole entry, canonical isoform): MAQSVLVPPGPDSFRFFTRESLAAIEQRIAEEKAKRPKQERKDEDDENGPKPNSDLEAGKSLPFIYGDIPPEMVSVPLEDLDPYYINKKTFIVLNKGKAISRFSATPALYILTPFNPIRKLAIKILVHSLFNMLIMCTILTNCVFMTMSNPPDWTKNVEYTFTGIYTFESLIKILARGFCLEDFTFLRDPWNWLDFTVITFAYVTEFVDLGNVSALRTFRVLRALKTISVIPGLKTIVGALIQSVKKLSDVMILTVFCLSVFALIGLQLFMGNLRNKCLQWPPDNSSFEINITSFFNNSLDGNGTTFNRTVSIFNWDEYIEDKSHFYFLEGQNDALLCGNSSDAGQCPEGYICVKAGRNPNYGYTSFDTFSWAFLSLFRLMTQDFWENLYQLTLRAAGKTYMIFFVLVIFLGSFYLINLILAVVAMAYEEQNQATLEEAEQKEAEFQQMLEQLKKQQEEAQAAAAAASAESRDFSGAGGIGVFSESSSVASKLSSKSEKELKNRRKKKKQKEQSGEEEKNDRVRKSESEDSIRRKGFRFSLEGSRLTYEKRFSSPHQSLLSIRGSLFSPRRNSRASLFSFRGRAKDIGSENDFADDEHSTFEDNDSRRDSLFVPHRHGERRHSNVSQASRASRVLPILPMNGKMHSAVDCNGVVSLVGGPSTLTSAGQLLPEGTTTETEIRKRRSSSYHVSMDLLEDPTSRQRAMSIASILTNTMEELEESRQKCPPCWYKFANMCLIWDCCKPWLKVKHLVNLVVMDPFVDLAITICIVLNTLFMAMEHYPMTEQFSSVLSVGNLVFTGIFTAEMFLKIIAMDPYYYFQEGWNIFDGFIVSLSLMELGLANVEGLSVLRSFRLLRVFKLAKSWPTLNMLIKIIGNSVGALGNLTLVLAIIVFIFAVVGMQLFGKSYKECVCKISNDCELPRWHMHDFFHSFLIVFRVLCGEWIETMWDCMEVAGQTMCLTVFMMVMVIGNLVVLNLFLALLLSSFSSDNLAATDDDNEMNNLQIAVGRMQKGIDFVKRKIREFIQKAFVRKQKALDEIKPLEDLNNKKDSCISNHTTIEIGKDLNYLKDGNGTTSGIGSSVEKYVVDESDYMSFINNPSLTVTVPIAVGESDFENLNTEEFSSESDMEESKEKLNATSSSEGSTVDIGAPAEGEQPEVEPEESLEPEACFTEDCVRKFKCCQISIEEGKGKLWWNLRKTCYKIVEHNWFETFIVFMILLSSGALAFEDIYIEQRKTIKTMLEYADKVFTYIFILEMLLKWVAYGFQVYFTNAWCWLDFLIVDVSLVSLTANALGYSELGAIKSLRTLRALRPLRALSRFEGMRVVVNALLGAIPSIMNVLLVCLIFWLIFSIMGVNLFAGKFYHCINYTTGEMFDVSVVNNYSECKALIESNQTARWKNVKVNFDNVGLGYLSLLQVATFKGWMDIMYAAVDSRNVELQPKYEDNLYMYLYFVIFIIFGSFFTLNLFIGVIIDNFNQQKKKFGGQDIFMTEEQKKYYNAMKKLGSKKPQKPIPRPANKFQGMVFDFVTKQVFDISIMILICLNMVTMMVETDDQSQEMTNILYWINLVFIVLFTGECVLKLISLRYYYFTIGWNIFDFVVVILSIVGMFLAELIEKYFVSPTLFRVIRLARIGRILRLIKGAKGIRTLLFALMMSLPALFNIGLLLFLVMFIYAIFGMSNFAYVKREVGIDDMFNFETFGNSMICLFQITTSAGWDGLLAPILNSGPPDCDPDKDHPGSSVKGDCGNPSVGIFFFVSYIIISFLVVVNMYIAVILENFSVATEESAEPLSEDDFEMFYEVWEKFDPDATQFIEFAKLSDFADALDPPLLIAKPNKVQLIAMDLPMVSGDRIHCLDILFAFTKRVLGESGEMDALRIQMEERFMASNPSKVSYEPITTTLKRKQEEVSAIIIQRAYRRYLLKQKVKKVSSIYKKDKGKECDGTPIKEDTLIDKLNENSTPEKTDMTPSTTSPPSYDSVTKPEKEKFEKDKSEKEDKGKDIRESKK

SMILES	IC50 [µM]
CCCCCN=c1ccn(Cc2ccccc2)c2cc(I)ccc12 [compound 10, 10]	1.5 ± 0.5
CCCCCN=c1ccn(Cc2ccccc2)c2cc(Cl)ccc12 [WIN17317-3]	2.2 ± 1.2

— paper PMC3764405, “Synthesis and evaluation of a ^125I-labeled iminodihydroquinoline-derived tracer for imaging of voltage-gated sodium channels^” (Bioorganic & Medicinal Chemistry Letters, 2013)
